The text below walks through data of ChEMBL document CHEMBL1201862, “PubChem BioAssay data set” (2004).

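Cells were grown in 96-well plates and exposed to each compound for 48 hours at five concentrations; endpoints were interpolated linearly between bracketing concentrations, or set to the highest concentration if not reached. GI50 is the concentration that inhibits growth by half.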 The source made the active and inactive calls. No stated cut-off is given here; in the data, active = GI50 up to about 1.1 µM and inactive = higher. Positions of bridges follow the written chain, without caps; N, C: chain ends. Non-standard residues stand in square brackets, D forms with d. Residues, ends and D or L forms follow the SMILES beside them. *: point of attachment. PhAc = O=C(Cc1ccccc1)* Where only a bound is given, the exact number is not on record here.

What all share (test): growth of human tumour cells (NCI), 48 h
The subject of assay [1] is CCRF-CEM.
Assay [2] relates to PC-3.
The subject of assay [3] is OVCAR-3.
Assay [4] concerns SNB-75.
Assay [5] relates to SNB-19.
For assay [6], the system named is OVCAR-5.
For assay [7], the system named is COLO 205.
The subject of assay [8] is A498.
Assay [9] concerns UACC-62.
Assay [10] has as its system T47D.
Assay [11] deals with M14.
The subject of assay [12] is NCI-H522.
For assay [13], the system named is MCF7.
The subject of assay [14] is HL-60.
Assay [15] has as its system OVCAR-4.
The test system of assay [16] is KM12.
For assay [17], the system named is U-251.
Assay [18] deals with MOLT-4.
In assay [19] the test system is BT-549.

As for `Sc1nnc(COc2ccc(Cl)cc2)n1-c1ccccc1`, the GI50 in assay [1] was 74.1 µM (inactive); in assay [2], > 100 µM (inactive); in [3] it was > 100 µM (inactive); in assay [4], > 100 µM (inactive); in assay [5], > 100 µM (inactive); in [6], > 100 µM (inactive). Moreover, the GI50 was 88.1 µM (inactive) in assay [7]; > 100 µM (inactive) in [8]; > 100 µM (inactive) in [9]; 30.4 µM (inactive) in [10]; > 100 µM (inactive) in [11]; 5.4 µM (inactive) in [12]. Besides, the GI50 in [13] was > 100 µM (inactive); in assay [14], > 100 µM (inactive); in [15] it was > 100 µM (inactive); in [16], > 100 µM (inactive); in [17] it was > 100 µM (inactive); in assay [18], 88.3 µM (inactive).

Regarding `COc1cc(C2C3C=CC=C4CC=CC(=C43)C3CCC(=O)N32)cc(OC)c1OC` (stereo unspecified), the GI50 in assay [2] is 59 µM (inactive); in assay [3] it was > 100 µM (inactive); in assay [4], > 100 µM (inactive); in assay [5], > 100 µM (inactive); in assay [6], > 100 µM (inactive); in assay [8], > 100 µM (inactive). Besides, the GI50 in assay [9] was 30.8 µM (inactive); in assay [10], 36.1 µM (inactive); in assay [11] it was > 100 µM (inactive); in assay [12] it was > 100 µM (inactive); in [13] it was > 100 µM (inactive); in [14], 64.1 µM (inactive). Further, the GI50 in assay [16], in assay [17] and in assay [18] was > 100 µM (inactive) each time.

Take `Cc1cc(Cl)nc(Nc2nc3ccccc3[nH]2)n1`: the GI50 in assay [1], in [2], in [3], in assay [4], in assay [5] and in assay [6] was > 100 µM (inactive) each time. In addition, the GI50 was > 100 µM (inactive) in assay [7]; > 100 µM (inactive) in assay [19]; > 100 µM (inactive) in [8]; > 100 µM (inactive) in assay [9]; > 100 µM (inactive) in assay [11]; 2.96 µM (inactive) in assay [12]. Besides, the GI50 in assay [13], in [14], in assay [15] and in [17] was > 100 µM (inactive) throughout.

On to `COc1ccc(NC(=O)/C(CC2=Nc3ccc([N+](=O)[O-])cc3NC2O)=N\NC(=O)C[N+](C)(C)C)c(OC)c1` (stereo unspecified), for which the GI50 is 40.3 µM (inactive) in assay [1]; > 100 µM (inactive) in assay [2]; > 100 µM (inactive) in [3]; > 100 µM (inactive) in [4]; > 100 µM (inactive) in [5]; > 100 µM (inactive) in assay [6]. For the same compound, the GI50 in assay [7] was 43 µM (inactive); in assay [19], > 100 µM (inactive); in [9], > 100 µM (inactive); in assay [11], 56.1 µM (inactive); in [12] it was 18 µM (inactive); in assay [13], > 100 µM (inactive). In addition, the GI50 was > 100 µM (inactive) in assay [14]; 80 µM (inactive) in assay [15]; 89.7 µM (inactive) in [16]; 40.7 µM (inactive) in assay [17]; > 100 µM (inactive) in [18].

Consider `COc1cc2c(c(OC)c1OC)-c1ccc(SC)cc1C(O)CC2` (stereo unspecified), for which the GI50 was < 0.01 µM (active) in assay [1]; < 0.01 µM (active) in assay [2]; < 0.01 µM (active) in assay [3]; < 0.01 µM (active) in assay [4]; < 0.01 µM (active) in assay [5]; 14.6 µM (inactive) in assay [6]. The GI50 was < 0.01 µM (active) in [7]; 12.1 µM (inactive) in assay [8]; < 0.01 µM (active) in assay [9]; > 100 µM (inactive) in assay [10]; < 0.01 µM (active) in assay [11]; < 0.01 µM (active) in [12]. Further, the GI50 in assay [13] was < 0.01 µM (active); in assay [14], < 0.01 µM (active); in assay [15], 1.94 µM (inactive); in assay [16], < 0.01 µM (active); in assay [18], < 0.01 µM (active).

For the compound `CCOCCOC(=O)C1CCC(=O)N1CN(C(C)=O)c1cc(OC)ccc1OC` (stereo unspecified), the GI50 in [2], in assay [3], in assay [4], in assay [5], in assay [6] and in assay [7] was > 100 µM (inactive) each time. Moreover, the GI50 in assay [8], in assay [9], in [10], in [11], in assay [12] and in [13] was > 100 µM (inactive) throughout. In addition, the GI50 in assay [15], in assay [16], in [17] and in [18] was > 100 µM (inactive) throughout.

In the case of `CC(C)NC(=O)OCc1c(COC(=O)NC(C)C)c(-c2cc[n+](COC(=O)CC(C)(C)C)cc2)n2c1CCC2`, the GI50 in assay [1], in assay [2], in assay [3], in assay [5], in [7] and in [19] was > 100 µM (inactive) in each case. For the same compound, the GI50 in assay [8], in [11], in assay [12], in [13], in assay [14] and in assay [15] was > 100 µM (inactive) in each case. Besides, the GI50 in assay [17] and in assay [18] was > 100 µM (inactive) each time.

In the case of `CC1=C/C(=N\NS(=O)(=O)c2ccc([N+](=O)[O-])cc2)CC(C)(C)C1`, the GI50 was > 100 µM (inactive) in [1]; > 100 µM (inactive) in assay [2]; > 100 µM (inactive) in [3]; 69 µM (inactive) in assay [5]; > 100 µM (inactive) in assay [6]; > 100 µM (inactive) in [7]. Moreover, the GI50 is > 100 µM (inactive) in [8]; 50.2 µM (inactive) in [9]; > 100 µM (inactive) in [10]; > 100 µM (inactive) in [11]; 86.5 µM (inactive) in [12]; > 100 µM (inactive) in assay [13]. The GI50 in assay [14] is > 100 µM (inactive); in assay [16], 76.2 µM (inactive); in assay [17], 97.1 µM (inactive); in [18], > 100 µM (inactive).

On to `C=CC(Cl)(CBr)CCC(Br)=C(C)C` (stereo unspecified), for which the GI50 in assay [1] is 26 µM (inactive); in assay [2], 21.3 µM (inactive); in assay [3], 24.5 µM (inactive); in [4] it was 41.5 µM (inactive); in assay [5], 34.5 µM (inactive); in [6] it was 26.8 µM (inactive). Also, the GI50 in [7] is 17.9 µM (inactive); in assay [19], 21.5 µM (inactive); in [8], > 100 µM (inactive); in [9], 18.6 µM (inactive); in [11] it was 25.5 µM (inactive); in assay [12], 16.9 µM (inactive). The GI50 was 14.2 µM (inactive) in assay [13]; 20.8 µM (inactive) in [15]; 20.2 µM (inactive) in assay [16]; 16.9 µM (inactive) in [17]; > 100 µM (inactive) in assay [18].

Regarding `COc1ccc(Cc2cc3c(cc2OCC(=O)O)OCO3)cc1`, the GI50 in assay [1], in assay [3], in assay [5], in assay [6], in [7] and in assay [8] was > 100 µM (inactive) each time. Besides, the GI50 in [9], in assay [11], in assay [12], in assay [14], in assay [15] and in assay [16] was > 100 µM (inactive) in each case. The GI50 in assay [18] was > 100 µM (inactive).

Take `CC(C)(C)OC(=O)CN1C(=O)CC1CC(=O)c1ccccc1` (stereo unspecified): the GI50 was 17.2 µM (inactive) in assay [2]; 18.4 µM (inactive) in assay [3]; 19.8 µM (inactive) in [5]; 17.5 µM (inactive) in assay [6]; 26.6 µM (inactive) in assay [7]; 18.2 µM (inactive) in [19]. The GI50 in [8] is 27.4 µM (inactive); in assay [9], 19.3 µM (inactive); in assay [11] it was 16.3 µM (inactive); in assay [12], 15.5 µM (inactive); in assay [13] it was 12.4 µM (inactive); in [14], 20 µM (inactive). The GI50 in [15] is 30.5 µM (inactive); in assay [16], 20 µM (inactive); in assay [17], 16 µM (inactive); in [18] it was 4.39 µM (inactive).

For the compound `O=C(Cc1ccccc1)N[C@@H]1COC(=O)[C@@H]2CCCN2C(=O)[C@@H]2CCCN2C1=O` (PhAc-[dS]-Pro-Pro; ester 1-C), the GI50 in assay [1] was > 100 µM (inactive); in assay [2] it was > 100 µM (inactive); in assay [3], > 100 µM (inactive); in [4] it was 0.0254 µM (active); in assay [5], > 100 µM (inactive); in assay [6] it was > 100 µM (inactive). In addition, the GI50 in assay [7], in [8], in assay [9], in assay [10], in [11] and in assay [13] was > 100 µM (inactive) in each case. The GI50 in [14], in assay [15], in assay [16] and in assay [18] was > 100 µM (inactive) in each case.
